Measurements as given in patent US20210115494A1, “Improved method for measurement of microbial biomass” (Mycometer A/S, priority 2018, published 2021).

Key:
[1] = test system: NAHA activity from Graham-flour; assay: NAHA activity assay (4-methylumbelliferyl N-acetyl-β-D-glucosaminide, fluorescence), Graham-flour; assay type: biochemical; conditions: Graham-flour, 30 min
Method: (§1) In order to determine NAHA activity in different samples, the technology in WO 98/033934 was employed: A sample containing a dried or freeze dried organism is added to a buffer solution containing 4-Methylumbelliferyl N-acetyl-β-D-glucosaminide in a concentration of 20 μM. The reaction-time is varied depending on the ambient temperature and according to a reaction-time/temperature data sheet previously developed for fungal NAHA activity at various temperatures, and is 30 minutes at 23° C. The resulting fluorescence formed during the reaction time is monitored in a calibrated fluorometer.
(§2) Experiments were conducted where varying concentrations of AgNO3 was added to an analysis substrate. Furthermore, the experiments where performed on dried or freeze dried materials where both intact and fragmented cells are to be expected to be present.
(§3) Experiments analogous to those in example 1 were carried out, but instead of using non-specific inhibitors, the effect of different concentrations of DNJNAc on the NAHA activity in various biomass containing samples was investigated.

[2] = test system: NAHA activity from Grass pollen; assay: NAHA activity assay, grass pollen; assay type: biochemical; conditions: for NAHA activity, control without Ag+ = 100%: Grass pollen, 30 min
Method: as §1, §2, §3

[3] = test system: NAHA activity from Birch pollen; assay: NAHA activity assay, birch pollen; assay type: biochemical; conditions: Birch pollen, 30 min
Method: as §1, §2, §3

[4] = test system: NAHA activity in Cladosporium spp.; assay: NAHA activity pilot experiment, Cladosporium spp.; assay type: biochemical; conditions: 10 μM
Method: as §1

[5] = test system: NAHA activity from Human skin cells; assay: NAHA activity assay, human skin cells; assay type: biochemical; conditions: 30 min
Method: as §1, §2, §3

[6] = test system: NAHA activity from Dermatophagoides pteronyssinus (Dust mite); assay: NAHA activity assay, dust mite; assay type: biochemical; conditions: Dermatophagoides pteronyssinus (Dust mite), 30 min
Method: as §1, §2, §3

[7] = test system: NAHA activity from Fusarium culmorum; assay: NAHA activity assay, Fusarium culmorum; assay type: biochemical
Method: as §1, §2, §3

[8] = test system: NAHA activity from Aspergillus fumigatus fresh from cultivation; assay: NAHA activity assay, Aspergillus fumigatus fresh from cultivation; assay type: biochemical
Method: as §1, §2

[9] = test system: NAHA activity in Alternaria spp.; assay: NAHA activity pilot experiment, Alternaria spp.; assay type: biochemical; conditions: 10 μM
Method: as §1

[10] = test system: fungal NAHA activity; assay: NAHA activity assay, fungal sources overall; assay type: biochemical, fungi
Method: as §1, §2, §3
The experiments were performed with whole cell/organism cultures rather than purified enzyme, which is normally used in experiments on specific inhibition. It is plausible, though, that the surprising non-specific inhibition effect observed for Ag^+ and Hg^+ could be due to the inhibitors being delayed in physically contacting the NAHA enzyme in the fungi when compared to other types of biomass.

[11] = test system: NAHA activity from Mucor hiemalis; assay: NAHA activity assay, Mucor hiemalis; assay type: biochemical
Method: as §1, §2, §3

[12] = test system: NAHA activity from Acremonium spp.; assay: NAHA activity assay, Acremonium spp.; assay type: biochemical; conditions: Acremonium spp.
Method: as §1, §2, §3

[13] = test system: NAHA activity from Penicillium crysogenum; assay: NAHA activity assay, Penicillium crysogenum; assay type: biochemical; conditions: Penicillium crysogenum
Method: as §1, §2, §3

[14] = test system: NAHA activity from Ambrosia psilostachya (Rag weed pollen); assay: NAHA activity assay, rag weed pollen; assay type: biochemical; conditions: 30 min
Method: as §1, §2, §3

[15] = test system: NAHA activity from Aspergillus fumigatus freeze dried; assay: NAHA activity assay, Aspergillus fumigatus freeze dried; assay type: biochemical; conditions: Aspergillus fumigatus freeze dried
Method: as §1, §2, §3

[16] = test system: NAHA activity from Cat dander; assay: NAHA activity assay, cat dander; assay type: biochemical; conditions: 30 min
Method: as §1, §2, §3

[17] = test system: NAHA activity from Cladosporium sphaerospermum; assay: NAHA activity assay, Cladosporium sphaerospermum; assay type: biochemical; conditions: Cladosporium sphaerospermum
Method: as §1, §2, §3

[18] = test system: NAHA activity from Mugworth pollen; assay: NAHA activity assay, mugworth pollen; assay type: biochemical; conditions: 30 min
Method: as §1, §2, §3

[19] = test system: NAHA activity from Aureobasidium pullulans; assay: NAHA activity assay, Aureobasidium pullulans; assay type: biochemical
Method: as §1, §2, §3

[20] = test system: non-fungal NAHA activity; assay: NAHA activity assay, non-fungal sources overall; assay type: biochemical
Method: as §1, §2, §3

[21] = test system: NAHA activity from Lepidoglyphus destructor (Storage mite); assay: NAHA activity assay, storage mite; assay type: biochemical; conditions: for NAHA activity, control without Ag+ = 100%: Lepidoglyphus destructor (Storage mite), 30 min
Method: as §1, §2, §3

[22] = test system: NAHA activity from Stachybotrys chartarum; assay: NAHA activity assay, Stachybotrys chartarum; assay type: biochemical
Method: as §1, §2, §3

[23] = test system: NAHA activity from all sources; assay: NAHA activity assay, all sources; assay type: biochemical; conditions: 500 μM
Method: as §1

For `O=[N+]([O-])[O-].[Ag+]` [Ag+, AgNO3], the “NAHA activity, control without Ag+ = 100%” value ([1]; Ag+ 10 μM) was 35%, the “NAHA activity, control without Ag+ = 100%” value ([1]; Ag+ 25 μM) was 33% and the “NAHA activity, control without Ag+ = 100%” value ([1]; Ag+ 100 μM) was 25%. The “NAHA activity, control without Ag+ = 100%” value ([1]; Ag+ 400 μM) was 19%, the “NAHA activity, control without Ag+ = 100%” value ([2]; Ag+ 10 μM) was 41% and the “NAHA activity, control without Ag+ = 100%” value ([2]; Ag+ 25 μM) was 22%. The “NAHA activity, control without Ag+ = 100%” value ([2]; Ag+ 100 μM) was 6%, the “NAHA activity, control without Ag+ = 100%” value ([2]; Ag+ 400 μM) was 8% and the “inhibition of NAHA activity” value ([2]; pilot experiment, 10 μM, grass pollen) was “almost total inhibition”. For the same compound, the “NAHA activity, control without Ag+ = 100%” value ([3]; Ag+ 10 μM) was 91%, the “NAHA activity, control without Ag+ = 100%” value ([3]; Ag+ 25 μM) was 74% and the “NAHA activity, control without Ag+ = 100%” value ([3]; Ag+ 100 μM) was 18%. The “NAHA activity, control without Ag+ = 100%” value ([3]; Ag+ 400 μM) was 11%, the “effect on the NAHA activity” value [4] was “no significant effect” and the “NAHA activity, control without Ag+ = 100%” value ([5]; Ag+ 10 μM) was 67%. The “NAHA activity, control without Ag+ = 100%” value ([5]; Ag+ 25 μM) was 65%, the “NAHA activity, control without Ag+ = 100%” value ([5]; Ag+ 100 μM) was 63% and the “NAHA activity, control without Ag+ = 100%” value ([5]; Ag+ 400 μM) was 46%. For the same compound, the “NAHA activity, control without Ag+ = 100%” value ([6]; Ag+ 10 μM) was 80%, the “NAHA activity, control without Ag+ = 100%” value ([6]; Ag+ 25 μM) was 57% and the “NAHA activity, control without Ag+ = 100%” value ([6]; Ag+ 100 μM) was 13%. The “NAHA activity, control without Ag+ = 100%” value ([6]; Ag+ 400 μM) was 6%, the “NAHA activity, 0 μM Ag+ = 100%” value ([7]; Ag+ 10 μM) was 107% and the “NAHA activity, 0 μM Ag+ = 100%” value ([7]; Ag+ 25 μM) was 107%. The “NAHA activity, 0 μM Ag+ = 100%” value ([7]; Ag+ 100 μM) was 110%, the “NAHA activity, 0 μM Ag+ = 100%” value ([7]; Ag+ 400 μM) was 102% and the “NAHA activity, 0 μM Ag+ = 100%” value ([8]; Ag+ 10 μM) was 91%. The “NAHA activity, 0 μM Ag+ = 100%” value ([8]; Ag+ 25 μM) was 103%, the “NAHA activity, 0 μM Ag+ = 100%” value ([8]; Ag+ 100 μM) was 95% and the “NAHA activity, 0 μM Ag+ = 100%” value ([8]; Ag+ 400 μM) was 87%. For the same compound, the “effect on the NAHA activity” value [9] was “no significant effect”, the “reduction of the fungal NAHA activity” value ([10]; 100 μM in the assay substrate) was “zero to very low reduction” and the “fungal NAHA activity retained” value ([10]; 400 μM) was “a high percentage”. The “inhibition of the fungal NAHA activity” value ([10]; inhibitor added to the fungal culture prior to the enzyme assay) was “complete inhibition”, the “NAHA activity, 0 μM Ag+ = 100%” value ([11]; Ag+ 10 μM) was 88% and the “NAHA activity, 0 μM Ag+ = 100%” value ([11]; Ag+ 25 μM) was 63%. The “NAHA activity, 0 μM Ag+ = 100%” value ([11]; Ag+ 100 μM) was 114%, the “NAHA activity, 0 μM Ag+ = 100%” value ([11]; Ag+ 400 μM) was 57% and the “NAHA activity, 0 μM Ag+ = 100%” value ([12]; Ag+ 10 μM) was 175%. The “NAHA activity, 0 μM Ag+ = 100%” value ([12]; Ag+ 25 μM) was 143%, the “NAHA activity, 0 μM Ag+ = 100%” value ([12]; Ag+ 100 μM) was 159% and the “NAHA activity, 0 μM Ag+ = 100%” value ([12]; Ag+ 400 μM) was 132%. For the same compound, the “effect on the NAHA activity” value ([12]; pilot experiment, 10 μM) was “no significant effect”, the “NAHA activity, 0 μM Ag+ = 100%” value ([13]; Ag+ 10 μM) was 98% and the “NAHA activity, 0 μM Ag+ = 100%” value ([13]; Ag+ 25 μM) was 106%. For the same compound, the “NAHA activity, 0 μM Ag+ = 100%” value ([13]; Ag+ 100 μM) was 87%, the “NAHA activity, 0 μM Ag+ = 100%” value ([13]; Ag+ 400 μM) was 65% and the “NAHA activity, control without Ag+ = 100%” value ([14]; Ag+ 10 μM) was 69%. The “NAHA activity, control without Ag+ = 100%” value ([14]; Ag+ 25 μM) was 55%, the “NAHA activity, control without Ag+ = 100%” value ([14]; Ag+ 100 μM) was 19% and the “NAHA activity, control without Ag+ = 100%” value ([14]; Ag+ 400 μM) was 17%. The “NAHA activity, 0 μM Ag+ = 100%” value ([15]; Ag+ 10 μM) was 104%, the “NAHA activity, 0 μM Ag+ = 100%” value ([15]; Ag+ 25 μM) was 108% and the “NAHA activity, 0 μM Ag+ = 100%” value ([15]; Ag+ 100 μM) was 98%. For the same compound, the “NAHA activity, 0 μM Ag+ = 100%” value ([15]; Ag+ 400 μM) was 91%, the “NAHA activity, control without Ag+ = 100%” value ([16]; Ag+ 10 μM) was 96% and the “NAHA activity, control without Ag+ = 100%” value ([16]; Ag+ 25 μM) was 69%. For the same compound, the “NAHA activity, control without Ag+ = 100%” value ([16]; Ag+ 100 μM) was 6%, the “NAHA activity, control without Ag+ = 100%” value ([16]; Ag+ 400 μM) was 3% and the “NAHA activity, 0 μM Ag+ = 100%” value ([17]; Ag+ 10 μM) was 212%. The “NAHA activity, 0 μM Ag+ = 100%” value ([17]; Ag+ 25 μM) was 154%, the “NAHA activity, 0 μM Ag+ = 100%” value ([17]; Ag+ 100 μM) was 137% and the “NAHA activity, 0 μM Ag+ = 100%” value ([17]; Ag+ 400 μM) was 167%. The “NAHA activity, control without Ag+ = 100%” value ([18]; Ag+ 10 μM) was 46%, the “NAHA activity, control without Ag+ = 100%” value ([18]; Ag+ 25 μM) was 23% and the “NAHA activity, control without Ag+ = 100%” value ([18]; Ag+ 100 μM) was 9%. For the same compound, the “NAHA activity, control without Ag+ = 100%” value ([18]; Ag+ 400 μM) was 8%, the “NAHA activity, 0 μM Ag+ = 100%” value ([19]; Ag+ 10 μM) was 89% and the “NAHA activity, 0 μM Ag+ = 100%” value ([19]; Ag+ 25 μM) was 91%. The “NAHA activity, 0 μM Ag+ = 100%” value ([19]; Ag+ 100 μM) was 96%, the “NAHA activity, 0 μM Ag+ = 100%” value ([19]; Ag+ 400 μM) was 76% and the “reduction of the non-fungal NAHA activity, on average” value ([20]; 100 μM in the assay substrate) was 82%. For the same compound, the “NAHA activity retained, average of non-fungal sources, of the control” value ([20]; 400 μM) was 13%, the “NAHA activity, control without Ag+ = 100%” value ([21]; Ag+ 10 μM) was 3% and the “NAHA activity, control without Ag+ = 100%” value ([21]; Ag+ 25 μM) was 2%. The “NAHA activity, control without Ag+ = 100%” value ([21]; Ag+ 100 μM) was 1%, the “NAHA activity, control without Ag+ = 100%” value ([21]; Ag+ 400 μM) was 0% and the “inhibition of NAHA activity” value ([21]; pilot experiment, 10 μM, mite Lepidoglyphus) was “almost total inhibition”. For the same compound, the “NAHA activity, 0 μM Ag+ = 100%” value ([22]; Ag+ 10 μM) was 97%, the “NAHA activity, 0 μM Ag+ = 100%” value ([22]; Ag+ 25 μM) was 91% and the “NAHA activity, 0 μM Ag+ = 100%” value ([22]; Ag+ 100 μM) was 83%. For the same compound, the “NAHA activity, 0 μM Ag+ = 100%” value ([22]; Ag+ 400 μM) was 93%.
With `[Cu+2]` [Cu^2+] the “inhibiting effect on NAHA activity from all sources” value [23] was “did not exhibit any or exhibited only very slight inhibiting effect”.
With `[Hg+]` [Hg^+] the “inhibition of fungal NAHA activity” value ([10]; 10 μM) was “less inhibition (but more than Ag^+)” and the “inhibition of non-fungal NAHA activity” value ([20]; 10 μM) was “high inhibition”.
